Assay results as given in PubChem BioAssay (NCI).
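In this assay, cells in 96-well plates receive the compound at five concentrations for 48 hours. Endpoints are linearly interpolated between the surrounding concentrations. TGI marks complete inhibition of growth.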

Tests used:
Test in all cases: NCI-60 cell line screen, 48 h
RXF-631 renal = system: RXF-631 renal
SF-268 CNS = system: SF-268 CNS
SF-539 CNS = system: SF-539 CNS
UO-31 renal = system: UO-31 renal
A498 renal = system: A498 renal
SR leukemia = system: SR leukemia
OVCAR-5 ovarian = system: OVCAR-5 ovarian
SK-OV-3 ovarian = system: SK-OV-3 ovarian
OVCAR-3 ovarian = system: OVCAR-3 ovarian
SK-MEL-5 melanoma = system: SK-MEL-5 melanoma
MOLT-4 leukemia = system: MOLT-4 leukemia
DLD-1 colon = system: DLD-1 colon
LXFL 529 NSCLC = system: LXFL 529 NSCLC
SK-MEL-28 melanoma = system: SK-MEL-28 melanoma
HCT-116 colon = system: HCT-116 colon
OVCAR-8 ovarian = system: OVCAR-8 ovarian
DMS 273 small cell lung = system: DMS 273 small cell lung
HCT-15 colon = system: HCT-15 colon
CCRF-CEM leukemia = system: CCRF-CEM leukemia
HOP-62 NSCLC = system: HOP-62 NSCLC
U251 CNS = system: U251 CNS
HL-60(TB) leukemia = system: HL-60(TB) leukemia
SNB-75 CNS = system: SNB-75 CNS
LOX IMVI melanoma = system: LOX IMVI melanoma
OVCAR-4 ovarian = system: OVCAR-4 ovarian
HCC-2998 colon = system: HCC-2998 colon
UACC-62 melanoma = system: UACC-62 melanoma
HT29 colon = system: HT29 colon
COLO 205 colon = system: COLO 205 colon
TK-10 renal = system: TK-10 renal
K-562 leukemia = system: K-562 leukemia
MALME-3M melanoma = system: MALME-3M melanoma
ACHN renal = system: ACHN renal
UACC-257 melanoma = system: UACC-257 melanoma
SK-MEL-2 melanoma = system: SK-MEL-2 melanoma
786-0 renal = system: 786-0 renal
SN12C renal = system: SN12C renal
SNB-78 CNS = system: SNB-78 CNS
A549 NSCLC = system: A549 NSCLC
SNB-19 CNS = system: SNB-19 CNS
KM20L2 colon = system: KM20L2 colon
SW-620 colon = system: SW-620 colon
RPMI-8226 leukemia = system: RPMI-8226 leukemia
RXF 393 renal = system: RXF 393 renal
HOP-18 NSCLC = system: HOP-18 NSCLC
M14 melanoma = system: M14 melanoma
NCI-H226 lung = system: NCI-H226 lung
NCI-H522 lung = system: NCI-H522 lung
NCI-H460 lung = system: NCI-H460 lung
IGROV1 ovarian = system: IGROV1 ovarian
HOP-92 NSCLC = system: HOP-92 NSCLC
DMS 114 small cell lung = system: DMS 114 small cell lung
CAKI-1 renal = system: CAKI-1 renal
SF-295 CNS = system: SF-295 CNS
KM12 colon = system: KM12 colon
NCI-H23 lung = system: NCI-H23 lung
EKVX NSCLC = system: EKVX NSCLC
M19-MEL melanoma = system: M19-MEL melanoma

Which TGI (RXF-631 renal) does the source give for `O=c1c(O)c(-c2ccccc2)n(O)c2ccc(Cl)cc12` here?
The TGI was greater than 100 µM.

What about the TGI (SF-268 CNS) of the same compound?
Its TGI is greater than 100 µM.

What about the TGI (SF-539 CNS) of the same compound?
The TGI was 48 µM.

What about the TGI (UO-31 renal) of the same compound?
Its TGI is greater than 100 µM.

What about the TGI (A498 renal) of the same compound?
Its TGI is 78.4 µM.

And the TGI (SR leukemia)?
Its TGI is greater than 100 µM.

What about the TGI (OVCAR-5 ovarian) of the same compound?
The TGI was 95.3 µM.

What about the TGI (SK-OV-3 ovarian) of the same compound?
The TGI was 78.6 µM.

What about the TGI (OVCAR-3 ovarian) of the same compound?
The TGI was greater than 100 µM.

What about the TGI (SK-MEL-5 melanoma) of the same compound?
Its TGI is 42.1 µM.

And the TGI (MOLT-4 leukemia)?
Its TGI is greater than 100 µM.

And the TGI (DLD-1 colon)?
The TGI was greater than 100 µM.

What about the TGI (LXFL 529 NSCLC) of the same compound?
The TGI was 64 µM.

What about the TGI (SK-MEL-28 melanoma) of the same compound?
The TGI was greater than 100 µM.

And the TGI (HCT-116 colon)?
The TGI was 24.6 µM.

And the TGI (OVCAR-8 ovarian)?
Its TGI is 52.1 µM.

And the TGI (DMS 273 small cell lung)?
Its TGI is 58.6 µM.

And the TGI (HCT-15 colon)?
Its TGI is 49.6 µM.

And the TGI (CCRF-CEM leukemia)?
Its TGI is greater than 100 µM.

What about the TGI (HOP-62 NSCLC) of the same compound?
Its TGI is 60.3 µM.

What about the TGI (U251 CNS) of the same compound?
The TGI was greater than 100 µM.

And the TGI (HL-60(TB) leukemia)?
Its TGI is 62.8 µM.

What about the TGI (SNB-75 CNS) of the same compound?
The TGI was 80.8 µM.

What about the TGI (LOX IMVI melanoma) of the same compound?
Its TGI is 27.2 µM.

What about the TGI (OVCAR-4 ovarian) of the same compound?
The TGI was greater than 100 µM.

And the TGI (HCC-2998 colon)?
Its TGI is 40.1 µM.

What about the TGI (UACC-62 melanoma) of the same compound?
The TGI was 55.3 µM.

What about the TGI (HT29 colon) of the same compound?
Its TGI is greater than 100 µM.

And the TGI (COLO 205 colon)?
Its TGI is greater than 100 µM.

And the TGI (TK-10 renal)?
The TGI was 72.3 µM.

And the TGI (K-562 leukemia)?
The TGI was greater than 100 µM.

And the TGI (MALME-3M melanoma)?
The TGI was greater than 100 µM.

What about the TGI (ACHN renal) of the same compound?
Its TGI is 74 µM.

What about the TGI (UACC-257 melanoma) of the same compound?
Its TGI is greater than 100 µM.

And the TGI (SK-MEL-2 melanoma)?
Its TGI is 58.6 µM.

And the TGI (786-0 renal)?
The TGI was greater than 100 µM.

What about the TGI (SN12C renal) of the same compound?
The TGI was 49.8 µM.

And the TGI (SNB-78 CNS)?
The TGI was greater than 100 µM.

And the TGI (A549 NSCLC)?
Its TGI is greater than 100 µM.

And the TGI (SNB-19 CNS)?
The TGI was greater than 100 µM.

And the TGI (KM20L2 colon)?
Its TGI is 83.9 µM.

And the TGI (SW-620 colon)?
Its TGI is 34.5 µM.

And the TGI (RPMI-8226 leukemia)?
Its TGI is greater than 100 µM.

And the TGI (RXF 393 renal)?
The TGI was 63 µM.

What about the TGI (HOP-18 NSCLC) of the same compound?
Its TGI is greater than 100 µM.

And the TGI (M14 melanoma)?
Its TGI is greater than 100 µM.

And the TGI (NCI-H226 lung)?
Its TGI is 45.1 µM.

What about the TGI (NCI-H522 lung) of the same compound?
Its TGI is 51.7 µM.

What about the TGI (NCI-H460 lung) of the same compound?
Its TGI is 69.2 µM.

What about the TGI (IGROV1 ovarian) of the same compound?
The TGI was 89.9 µM.

What about the TGI (HOP-92 NSCLC) of the same compound?
Its TGI is 96.5 µM.

What about the TGI (DMS 114 small cell lung) of the same compound?
Its TGI is 54.9 µM.

And the TGI (CAKI-1 renal)?
Its TGI is 71.1 µM.

And the TGI (SF-295 CNS)?
Its TGI is greater than 100 µM.

What about the TGI (KM12 colon) of the same compound?
Its TGI is 80.9 µM.

And the TGI (NCI-H23 lung)?
Its TGI is greater than 100 µM.

For `CC1CCCP(=O)(c2ccccc2)CC1` (stereo not drawn), which TGI (RXF-631 renal) is on record?
The TGI was greater than 100 µM.

What about the TGI (SF-268 CNS) of the same compound?
The TGI was greater than 100 µM.

What about the TGI (SF-539 CNS) of the same compound?
Its TGI is greater than 100 µM.

And the TGI (UO-31 renal)?
The TGI was greater than 100 µM.

What about the TGI (A498 renal) of the same compound?
Its TGI is greater than 100 µM.

And the TGI (OVCAR-5 ovarian)?
Its TGI is greater than 100 µM.

And the TGI (SK-OV-3 ovarian)?
The TGI was greater than 100 µM.

What about the TGI (OVCAR-3 ovarian) of the same compound?
The TGI was greater than 100 µM.

What about the TGI (SK-MEL-5 melanoma) of the same compound?
The TGI was greater than 100 µM.

And the TGI (MOLT-4 leukemia)?
Its TGI is greater than 100 µM.

And the TGI (DLD-1 colon)?
The TGI was greater than 100 µM.

And the TGI (LXFL 529 NSCLC)?
The TGI was greater than 100 µM.

And the TGI (SK-MEL-28 melanoma)?
Its TGI is greater than 100 µM.

What about the TGI (OVCAR-8 ovarian) of the same compound?
Its TGI is greater than 100 µM.

What about the TGI (DMS 273 small cell lung) of the same compound?
The TGI was greater than 100 µM.

What about the TGI (HCT-15 colon) of the same compound?
Its TGI is greater than 100 µM.

What about the TGI (CCRF-CEM leukemia) of the same compound?
Its TGI is greater than 100 µM.

What about the TGI (HOP-62 NSCLC) of the same compound?
The TGI was greater than 100 µM.

And the TGI (U251 CNS)?
The TGI was greater than 100 µM.

What about the TGI (SNB-75 CNS) of the same compound?
The TGI was greater than 100 µM.

What about the TGI (LOX IMVI melanoma) of the same compound?
Its TGI is greater than 100 µM.

And the TGI (OVCAR-4 ovarian)?
The TGI was greater than 100 µM.

And the TGI (HCC-2998 colon)?
Its TGI is greater than 100 µM.

What about the TGI (UACC-62 melanoma) of the same compound?
Its TGI is greater than 100 µM.

What about the TGI (HT29 colon) of the same compound?
Its TGI is greater than 100 µM.

What about the TGI (COLO 205 colon) of the same compound?
Its TGI is greater than 100 µM.

What about the TGI (TK-10 renal) of the same compound?
The TGI was greater than 100 µM.

What about the TGI (K-562 leukemia) of the same compound?
Its TGI is greater than 100 µM.

And the TGI (MALME-3M melanoma)?
The TGI was greater than 100 µM.

And the TGI (ACHN renal)?
The TGI was greater than 100 µM.

What about the TGI (UACC-257 melanoma) of the same compound?
Its TGI is greater than 100 µM.

And the TGI (SK-MEL-2 melanoma)?
The TGI was greater than 100 µM.

And the TGI (786-0 renal)?
The TGI was greater than 100 µM.

What about the TGI (SN12C renal) of the same compound?
Its TGI is greater than 100 µM.

And the TGI (SNB-78 CNS)?
The TGI was greater than 100 µM.

And the TGI (EKVX NSCLC)?
Its TGI is greater than 100 µM.

And the TGI (A549 NSCLC)?
Its TGI is greater than 100 µM.

And the TGI (SNB-19 CNS)?
Its TGI is greater than 100 µM.

And the TGI (KM20L2 colon)?
The TGI was greater than 100 µM.

What about the TGI (SW-620 colon) of the same compound?
The TGI was greater than 100 µM.

And the TGI (RPMI-8226 leukemia)?
Its TGI is greater than 100 µM.

And the TGI (RXF 393 renal)?
Its TGI is greater than 100 µM.

And the TGI (HOP-18 NSCLC)?
Its TGI is 0.958 µM.

What about the TGI (M14 melanoma) of the same compound?
The TGI was greater than 100 µM.

And the TGI (NCI-H460 lung)?
The TGI was greater than 100 µM.

What about the TGI (M19-MEL melanoma) of the same compound?
Its TGI is greater than 100 µM.

And the TGI (IGROV1 ovarian)?
Its TGI is greater than 100 µM.

And the TGI (DMS 114 small cell lung)?
Its TGI is greater than 100 µM.

What about the TGI (CAKI-1 renal) of the same compound?
Its TGI is greater than 100 µM.

And the TGI (SF-295 CNS)?
Its TGI is greater than 100 µM.

What about the TGI (KM12 colon) of the same compound?
The TGI was greater than 100 µM.

What about the TGI (NCI-H23 lung) of the same compound?
Its TGI is greater than 100 µM.
